We go through six molecules from patent publication US20160128339A1, “CHROMOBACTERIUM FORMULATIONS, COMPOSITIONS, METABLOITES AND THEIR USES” (priority 2011, published 2016).

For experiment [1], the system named is TSSM. As to the kind of experiment: TSSM control on field strawberry transplants. The class given is in vivo, Tetranychus urticae. Conditions: rate/acre: abamectin 16 fl. oz., bifenzate 1 lb + INDUCE, COHERE 16 fl. oz., spiromesifin 12 fl. oz. + INDUCE, fenpyroximate 32 fl. oz., hexythiazox 6 oz.; for Number of eggs TSSM/leaflet day 90 / Number of motile TSSM/leaflet day 90: before first spray. The protocol:
The efficacy of five traditional compounds and MBI-203 ingredients were evaluated for TSSM control on field strawberry transplants at the Florida Gulf Coast Research and Education Center. Seedlings were transplanted in the Field (day 0), Each 12.5-ft. plot consisted of 20 plants. Plots were infested four times from day 55 through day 71 with 10 to 20 motile TSSM per plant. Seventeen treatments of various rates and schedules of application of miticides, some combined with an adjuvant, and a non-treated check were replicated four times in a RCB design. Treatments were applied using a hand held sprayer with a spray wand outfitted with a nozzle containing a 45-degree core and a number four disc. The sprayer was pressurized by CO2, to 40 psi, and calibrated to deliver 100 gal per acre. Samples were collected weekly from day 90 before first spray through 2 wks after the last application of treatments (day 154). Samples consisted of ten randomly selected leaflets per plot and were collected from the middle one-third stratum of the plants. Motile and egg TSSM were brushed from the leaflets onto rotating sticky discs and counted. No phytotoxicity was observed.

For experiment [2], the system named is M. hapla nematodes. As to the kind of experiment: In vitro 96-well nematode immobility bioassay. The class given is in vivo. The following applies: M. hapla J2; 100 μl of 4 mg/ml sample; 24 hour at 25° C. Here is the method: The fractions and pure compounds were dissolved in Dimethylsulfoxide (DMSO) and were tested in an in vitro 96-well plastic cell-culture plate bioassay. Around 15-20 nematodes in a 50 μl water solution were exposed to 100 μl of a 4 mg/ml of sample for a 24 hour period at 25° C. Once the incubation period was completed, results were recorded based on a visual grading of immobility of the juvenile nematodes (J2°s) in each well treated with sampler; each treatment was tested in well repetitions of four. […] Three controls were included in each trial; 1 positive (1% Avid) & 2 negative (DMSO & water). Both trials (T1) and (T2) were carried out using M. hapla nematodes.

For `COc1ccc(-c2ccccc2)cc1NNC(=O)OC(C)C` [Bifenzate], in experiment [1], the “Number of eggs TSSM/leaflet day 90” value is 3.8, the “Number of motile TSSM/leaflet day 90” value was determined as 3.8, the “Number of eggs TSSM/leaflet day 98” value stood at 6.0 and the “Number of eggs TSSM/leaflet day 105” value worked out at 6.0. Also, in experiment [1], the “Number of eggs TSSM/leaflet day 111” value was 0.8, the “Number of eggs TSSM/leaflet day 118” value is given as 8.3, the “Number of eggs TSSM/leaflet day 125” value amounted to 20.5 and the “Number of eggs TSSM/leaflet day 132” value came out at 3.01. Moreover, in experiment [1], the “Number of eggs TSSM/leaflet day 139” value came out at 28.0, the “Number of eggs TSSM/leaflet day 146” value was 66.5, the “Number of eggs TSSM/leaflet day 154” value turned out to be 128.3 and the “Number of motile TSSM/leaflet day 98” value is given as 6.0. Also, in experiment [1], the “Number of motile TSSM/leaflet day 105” value is listed as 6.0, the “Number of motile TSSM/leaflet day 111” value was 0.8, the “Number of motile TSSM/leaflet day 118” value is 8.3 and the “Number of motile TSSM/leaflet day 125” value is listed as 20.5. Further, in experiment [1], the “Number of motile TSSM/leaflet day 132” value was 3.0, the “Number of motile TSSM/leaflet day 139” value was 28.0, the “Number of motile TSSM/leaflet day 146” value is 66.5 and the “Number of motile TSSM/leaflet day 154” value is 128.3.
As for `Cc1nn(C)c(Oc2ccccc2)c1C=NOCc1ccc(C(=O)OC(C)(C)C)cc1` [Fenpyroximate], in experiment [1], the “Number of eggs TSSM/leaflet day 90” value is 9.3, the “Number of motile TSSM/leaflet day 90” value is given as 4.5, the “Number of eggs TSSM/leaflet day 98” value is on record as 11.8 and the “Number of eggs TSSM/leaflet day 105” value was 12.3. Moreover, in experiment [1], the “Number of eggs TSSM/leaflet day 111” value was found to be 12.5, the “Number of eggs TSSM/leaflet day 118” value turned out to be 1.0, the “Number of eggs TSSM/leaflet day 125” value was found to be 34.5 and the “Number of eggs TSSM/leaflet day 132” value amounted to 20.8. Further, in experiment [1], the “Number of eggs TSSM/leaflet day 139” value is 28.5, the “Number of eggs TSSM/leaflet day 146” value amounted to 97.3, the “Number of eggs TSSM/leaflet day 154” value is 240.8 and the “Number of motile TSSM/leaflet day 98” value turned out to be 3.8. Moreover, in experiment [1], the “Number of motile TSSM/leaflet day 105” value was found to be 6.5, the “Number of motile TSSM/leaflet day 111” value turned out to be 2.8, the “Number of motile TSSM/leaflet day 118” value amounted to 2.0 and the “Number of motile TSSM/leaflet day 125” value was determined as 7.3. Moreover, in experiment [1], the “Number of motile TSSM/leaflet day 132” value is recorded as 5.3, the “Number of motile TSSM/leaflet day 139” value is listed as 10.0, the “Number of motile TSSM/leaflet day 146” value was determined as 34.3 and the “Number of motile TSSM/leaflet day 154” value was determined as 145.3.
Consider `C[C@@H]1[C@@H](c2ccc(Cl)cc2)SC(=O)N1C(=O)NC1CCCCC1` [Hexythiazox], for which, in experiment [1], the “Number of eggs TSSM/leaflet day 90” value turned out to be 2.0, the “Number of motile TSSM/leaflet day 90” value is listed as 2.0, the “Number of eggs TSSM/leaflet day 98” value was found to be 8.5 and the “Number of eggs TSSM/leaflet day 105” value amounted to 15.0. Moreover, in experiment [1], the “Number of eggs TSSM/leaflet day 111” value stood at 17.0, the “Number of eggs TSSM/leaflet day 118” value is recorded as 22.0, the “Number of eggs TSSM/leaflet day 125” value is reported as 71.5 and the “Number of eggs TSSM/leaflet day 132” value was found to be 128.5. Moreover, in experiment [1], the “Number of eggs TSSM/leaflet day 139” value amounted to 281.5, the “Number of eggs TSSM/leaflet day 146” value was found to be 393.5, the “Number of eggs TSSM/leaflet day 154” value came out at 533.0 and the “Number of motile TSSM/leaflet day 98” value is on record as 1.8. Further, in experiment [1], the “Number of motile TSSM/leaflet day 105” value is given as 2.8, the “Number of motile TSSM/leaflet day 111” value is 6.0, the “Number of motile TSSM/leaflet day 118” value was 13.8 and the “Number of motile TSSM/leaflet day 125” value is 23.0. In addition, in experiment [1], the “Number of motile TSSM/leaflet day 132” value is listed as 57.5, the “Number of motile TSSM/leaflet day 139” value came out at 103.3, the “Number of motile TSSM/leaflet day 146” value amounted to 196.0 and the “Number of motile TSSM/leaflet day 154” value was found to be 285.5.
As to `Cc1cc(C)c(C2=C(OC(=O)CC(C)(C)C)C3(CCCC3)OC2=O)c(C)c1` [Spiromesifin], in experiment [1], the “Number of eggs TSSM/leaflet day 90” value was determined as 7.3, the “Number of motile TSSM/leaflet day 90” value is recorded as 2.8, the “Number of eggs TSSM/leaflet day 98” value is 5.3 and the “Number of eggs TSSM/leaflet day 105” value amounted to 7.3. In addition, in experiment [1], the “Number of eggs TSSM/leaflet day 111” value is listed as 5.0, the “Number of eggs TSSM/leaflet day 118” value was found to be 1.5, the “Number of eggs TSSM/leaflet day 125” value came to 2.3 and the “Number of eggs TSSM/leaflet day 132” value is 2.8. Besides, in experiment [1], the “Number of eggs TSSM/leaflet day 139” value was 0.8, the “Number of eggs TSSM/leaflet day 146” value came to 4.5, the “Number of eggs TSSM/leaflet day 154” value was determined as 25.5 and the “Number of motile TSSM/leaflet day 98” value is listed as 2.3. In addition, in experiment [1], the “Number of motile TSSM/leaflet day 105” value is on record as 2.0, the “Number of motile TSSM/leaflet day 111” value is recorded as 2.3, the “Number of motile TSSM/leaflet day 118” value was 0.5 and the “Number of motile TSSM/leaflet day 125” value is 0.8. For the same molecule, in experiment [1], the “Number of motile TSSM/leaflet day 132” value is 0.5, the “Number of motile TSSM/leaflet day 139” value is reported as 2.5, the “Number of motile TSSM/leaflet day 146” value stood at 2.8 and the “Number of motile TSSM/leaflet day 154” value came to 6.0.
As to Abamectin, in experiment [1], the “Number of eggs TSSM/leaflet day 90” value was found to be 6.8, the “Number of motile TSSM/leaflet day 90” value is listed as 8.5, the “Number of eggs TSSM/leaflet day 98” value is 17.0 and the “Number of eggs TSSM/leaflet day 105” value is recorded as 26.5. For the same molecule, in experiment [1], the “Number of eggs TSSM/leaflet day 111” value is 12.0, the “Number of eggs TSSM/leaflet day 118” value is listed as 1.3, the “Number of eggs TSSM/leaflet day 125” value was determined as 2.3 and the “Number of eggs TSSM/leaflet day 132” value is reported as 6.5. In experiment [1], the “Number of eggs TSSM/leaflet day 139” value worked out at 3.5, the “Number of eggs TSSM/leaflet day 146” value is 3.5, the “Number of eggs TSSM/leaflet day 154” value worked out at 41.3 and the “Number of motile TSSM/leaflet day 98” value was determined as 4.5. Moreover, in experiment [1], the “Number of motile TSSM/leaflet day 105” value was determined as 6.3, the “Number of motile TSSM/leaflet day 111” value came out at 5.3, the “Number of motile TSSM/leaflet day 118” value stood at 0.5 and the “Number of motile TSSM/leaflet day 125” value came to 0.5. Moreover, in experiment [1], the “Number of motile TSSM/leaflet day 132” value came to 3.0, the “Number of motile TSSM/leaflet day 139” value is listed as 6.3, the “Number of motile TSSM/leaflet day 146” value is 6.8 and the “Number of motile TSSM/leaflet day 154” value amounted to 15.3.
As to Oligo-(β-hydroxybutyric acid), the immobility in experiment [2] is given as 75%.
